Measurements: patent publication US11628228B2, “99mTc-labeled isonitrile-containing glucose derivative and preparation method and use thereof” (Beijing Shihong Pharmaceutical Research Center, priority 2017, dated 2023)

What was measured:
[1] = system: S180-bearing mice; assay: Bio-distribution in tumor-bearing mice; type: in vivo; conditions: for Blood uptake / Bone uptake / Heart uptake / Kidney uptake / Liver uptake / Lung uptake / Muscle uptake / Small intestine uptake / Spleen uptake / Stomach uptake / Tumor uptake / Tumor/blood ratio / Tumor/muscle ratio: S180-bearing mice, tail vein; for Tumor/liver ratio: tumor-bearing mice, 0.5 hour after injection
Procedure: The labeled solution (0.1 mL, 74 KBq) is injected into mice through the tail vein, and the injection time is recorded. Then the mice were killed by cervical dislocation at different time phases (30 minutes, 60 minutes, and 120 minutes), five mice for each time phase, and the organs of interest such as heart, liver, lung, kidney, spleen, stomach, muscle, blood and tumor are taken out after dissection, and measured with a γ-counter for the radioactive count of each organ. The uptake value of each organ is obtained by calculation based on the mass of the organ (with % ID/g as the unit).

[2] = Determination of the lipid-water partition coefficient (n-octanol/PBS); type: physicochemical
Procedure: One hundred μL of the labeled substance solution (50 μCi) diluted with normal saline is placed into a 2 mL centrifuge tube, and then 800 μL of n-octanol and 700 μL of PBS are added to the centrifuge tube, which is subsequently covered with a cap. The centrifuge tube is vortexed for 3 minutes (2500 r/minute), allowed to stand until the solution is layered, and centrifuged in a centrifuge for 3 minutes (3000 r/minute). Three samples of the upper organic phase and three samples of the lower aqueous phase are taken, each 100 μL, and detected in a γ-counter for the radioactive counts of the organic and aqueous phases, respectively.

[3] = system: tumor-bearing mice; assay: SPECT imaging in tumor-bearing mice; type: in vivo; conditions: 0.2 mL, 700 μCi tail vein, imaging 1 hour later
Procedure: The prepared [^99mTc-(CN3DG)6]^+ or [^99mTc-(CN5DG)6]^+ (0.2 mL, 700 μCi) is injected into tumor-bearing mice through tail vein, and SPECT imaging is performed 1 hour later.

[4] = system: tumor-bearing mice; conditions: 0.5 hour after injection, literature; cited from earlier work

`O=C(CC[N+]#[C][99Tc-5]([C]#[N+]CCC(=O)NC1C(O)OC(CO)C(O)C1O)([C]#[N+]CCC(=O)NC1C(O)OC(CO)C(O)C1O)([C]#[N+]CCC(=O)NC1C(O)OC(CO)C(O)C1O)([C]#[N+]CCC(=O)NC1C(O)OC(CO)C(O)C1O)[C]#[N+]CCC(=O)NC1C(O)OC(CO)C(O)C1O)NC1C(O)OC(CO)C(O)C1O` (centres unmarked) [[^99mTc-(CN2DG)6]^+] showed a Blood uptake ([1]; 30 min) of 0.94 ± 0.18 % ID/g, a Bone uptake ([1]; 30 min) of 0.32 ± 0.07 % ID/g and a Heart uptake ([1]; 30 min) of 0.34 ± 0.06 % ID/g. For the same compound, the Kidney uptake ([1]; 30 min) was 3.11 ± 1.04 % ID/g, the Liver uptake ([1]; 30 min) was 0.35 ± 0.06 % ID/g and the Lung uptake ([1]; 30 min) was 0.94 ± 0.18 % ID/g. It also gave a Muscle uptake ([1]; 30 min) of 0.27 ± 0.07 % ID/g, a Small intestine uptake ([1]; 30 min) of 0.44 ± 0.16 % ID/g and a Spleen uptake ([1]; 30 min) of 0.31 ± 0.09 % ID/g. The Stomach uptake ([1]; 30 min) was 0.38 ± 0.15 % ID/g, the Tumor uptake ([1]; 30 min) was 1.09 ± 0.23 % ID/g and the Tumor/blood ratio ([1]; 30 min) was 1.16. For the same compound, the Tumor/muscle ratio ([1]; 30 min) was 4.04, the Blood uptake ([1]; 60 min) was 0.20 ± 0.05 % ID/g and the Bone uptake ([1]; 60 min) was 0.10 ± 0.02 % ID/g. The Heart uptake ([1]; 60 min) was 0.12 ± 0.02 % ID/g, the Kidney uptake ([1]; 60 min) was 1.17 ± 0.27 % ID/g and the Liver uptake ([1]; 60 min) was 0.18 ± 0.02 % ID/g. It also gave a Lung uptake ([1]; 60 min) of 0.26 ± 0.06 % ID/g, a Muscle uptake ([1]; 60 min) of 0.08 ± 0.00 % ID/g and a Small intestine uptake ([1]; 60 min) of 0.19 ± 0.03 % ID/g. For the same compound, the Spleen uptake ([1]; 60 min) was 0.13 ± 0.02 % ID/g, the Stomach uptake ([1]; 60 min) was 0.19 ± 0.07 % ID/g and the Tumor uptake ([1]; 60 min) was 0.50 ± 0.07 % ID/g. For the same compound, the Tumor/blood ratio ([1]; 60 min) was 2.78, the Tumor/muscle ratio ([1]; 60 min) was 6.25 and the Blood uptake ([1]; 120 min) was 0.01 ± 0.00 % ID/g. It also gave a Bone uptake ([1]; 120 min) of 0.05 ± 0.02 % ID/g, a Heart uptake ([1]; 120 min) of 0.05 ± 0.02 % ID/g and a Kidney uptake ([1]; 120 min) of 0.68 ± 0.11 % ID/g. It also gave a Liver uptake ([1]; 120 min) of 0.09 ± 0.01 % ID/g, a Lung uptake ([1]; 120 min) of 0.09 ± 0.04 % ID/g and a Muscle uptake ([1]; 120 min) of 0.04 ± 0.01 % ID/g. For the same compound, the Small intestine uptake ([1]; 120 min) was 0.12 ± 0.02 % ID/g, the Spleen uptake ([1]; 120 min) was 0.07 ± 0.01 % ID/g and the Stomach uptake ([1]; 120 min) was 0.15 ± 0.06 % ID/g. For the same compound, the Tumor uptake ([1]; 120 min) was 0.25 ± 0.05 % ID/g, the Tumor/blood ratio ([1]; 120 min) was 25.00 and the Tumor/muscle ratio ([1]; 120 min) was 6.25. For the same compound, the Tumor/liver ratio [1] was 3.11 and the “Log P (lipid-water partition coefficient)” value (“Log P” below) [2] was −4.26±0.12.
For `O=C(CCCC[N+]#[C][99Tc-5]([C]#[N+]CCCCC(=O)NC1C(O)OC(CO)C(O)C1O)([C]#[N+]CCCCC(=O)NC1C(O)OC(CO)C(O)C1O)([C]#[N+]CCCCC(=O)NC1C(O)OC(CO)C(O)C1O)([C]#[N+]CCCCC(=O)NC1C(O)OC(CO)C(O)C1O)[C]#[N+]CCCCC(=O)NC1C(O)OC(CO)C(O)C1O)NC1C(O)OC(CO)C(O)C1O` (centres unmarked) [[^99mTc-(CN4DG)6]^+], the Blood uptake ([1]; 30 min) was 1.80 ± 0.53 % ID/g, the Bone uptake ([1]; 30 min) was 0.73 ± 0.23 % ID/g and the Heart uptake ([1]; 30 min) was 0.70 ± 0.18 % ID/g. For the same compound, the Kidney uptake ([1]; 30 min) was 4.93 ± 1.11 % ID/g, the Liver uptake ([1]; 30 min) was 0.66 ± 0.13 % ID/g and the Lung uptake ([1]; 30 min) was 1.75 ± 0.49 % ID/g. For the same compound, the Muscle uptake ([1]; 30 min) was 0.57 ± 0.18 % ID/g, the Small intestine uptake ([1]; 30 min) was 1.06 ± 0.33 % ID/g and the Spleen uptake ([1]; 30 min) was 0.53 ± 0.12 % ID/g. For the same compound, the Stomach uptake ([1]; 30 min) was 0.81 ± 0.33 % ID/g, the Tumor uptake ([1]; 30 min) was 1.72 ± 0.30 % ID/g and the Tumor/blood ratio ([1]; 30 min) was 0.95. For the same compound, the Tumor/muscle ratio ([1]; 30 min) was 3.01, the Blood uptake ([1]; 60 min) was 0.30 ± 0.13 % ID/g and the Bone uptake ([1]; 60 min) was 0.19 ± 0.04 % ID/g. The Heart uptake ([1]; 60 min) was 0.22 ± 0.08 % ID/g, the Kidney uptake ([1]; 60 min) was 1.57 ± 0.27 % ID/g and the Liver uptake ([1]; 60 min) was 0.28 ± 0.06 % ID/g. The Lung uptake ([1]; 60 min) was 0.40 ± 0.11 % ID/g, the Muscle uptake ([1]; 60 min) was 0.27 ± 0.17 % ID/g and the Small intestine uptake ([1]; 60 min) was 0.25 ± 0.11 % ID/g. The Spleen uptake ([1]; 60 min) was 0.21 ± 0.04 % ID/g, the Stomach uptake ([1]; 60 min) was 0.23 ± 0.07 % ID/g and the Tumor uptake ([1]; 60 min) was 0.88 ± 0.09 % ID/g. The Tumor/blood ratio ([1]; 60 min) was 2.93, the Tumor/muscle ratio ([1]; 60 min) was 3.26 and the Blood uptake ([1]; 120 min) was 0.03 ± 0.01 % ID/g. The Bone uptake ([1]; 120 min) was 0.13 ± 0.09 % ID/g, the Heart uptake ([1]; 120 min) was 0.10 ± 0.04 % ID/g and the Kidney uptake ([1]; 120 min) was 1.24 ± 0.53 % ID/g. It also gave a Liver uptake ([1]; 120 min) of 0.17 ± 0.03 % ID/g, a Lung uptake ([1]; 120 min) of 0.13 ± 0.02 % ID/g and a Muscle uptake ([1]; 120 min) of 0.15 ± 0.07 % ID/g. The Small intestine uptake ([1]; 120 min) was 0.36 ± 0.21 % ID/g, the Spleen uptake ([1]; 120 min) was 0.11 ± 0.02 % ID/g and the Stomach uptake ([1]; 120 min) was 0.08 ± 0.01 % ID/g. The Tumor uptake ([1]; 120 min) was 0.45 ± 0.17 % ID/g, the Tumor/blood ratio ([1]; 120 min) was 15.00 and the Tumor/muscle ratio ([1]; 120 min) was 3.00. For the same compound, the Tumor/liver ratio [1] was 2.60 and the “Log P” value [2] was −3.84±0.06.
In the case of `O=C(CCC[N+]#[C][99Tc-5]([C]#[N+]CCCC(=O)NC1C(O)OC(CO)C(O)C1O)([C]#[N+]CCCC(=O)NC1C(O)OC(CO)C(O)C1O)([C]#[N+]CCCC(=O)NC1C(O)OC(CO)C(O)C1O)([C]#[N+]CCCC(=O)NC1C(O)OC(CO)C(O)C1O)[C]#[N+]CCCC(=O)NC1C(O)OC(CO)C(O)C1O)NC1C(O)OC(CO)C(O)C1O` (centres unmarked) [[^99mTc-(CN3DG)6]^+], the “SPECT imaging: aggregation at the tumor sites” value [3] is reported as “evident aggregation at the tumor sites”, the “SPECT imaging: concentration in kidney” value [3] is reported as “relatively high concentration in kidney” and the “SPECT imaging: uptake in other organs” value [3] is reported as “relatively low”. It also gave a Blood uptake ([1]; 30 min) of 0.78 ± 0.16 % ID/g, a Bone uptake ([1]; 30 min) of 0.27 ± 0.05 % ID/g and a Heart uptake ([1]; 30 min) of 0.40 ± 0.07 % ID/g. The Kidney uptake ([1]; 30 min) was 2.17 ± 0.43 % ID/g, the Liver uptake ([1]; 30 min) was 0.39 ± 0.12 % ID/g and the Lung uptake ([1]; 30 min) was 0.78 ± 0.12 % ID/g. The Muscle uptake ([1]; 30 min) was 0.37 ± 0.08 % ID/g, the Small intestine uptake ([1]; 30 min) was 0.44 ± 0.08 % ID/g and the Spleen uptake ([1]; 30 min) was 0.28 ± 0.05 % ID/g. The Stomach uptake ([1]; 30 min) was 0.64 ± 0.25 % ID/g, the Tumor uptake ([1]; 30 min) was 1.49 ± 0.08 % ID/g and the Tumor/blood ratio ([1]; 30 min) was 1.91. For the same compound, the Tumor/muscle ratio ([1]; 30 min) was 4.03, the Blood uptake ([1]; 60 min) was 0.12 ± 0.03 % ID/g and the Bone uptake ([1]; 60 min) was 0.15 ± 0.02 % ID/g. It also gave a Heart uptake ([1]; 60 min) of 0.22 ± 0.04 % ID/g, a Kidney uptake ([1]; 60 min) of 1.05 ± 0.21 % ID/g and a Liver uptake ([1]; 60 min) of 0.23 ± 0.03 % ID/g. For the same compound, the Lung uptake ([1]; 60 min) was 0.23 ± 0.04 % ID/g, the Muscle uptake ([1]; 60 min) was 0.17 ± 0.07 % ID/g and the Small intestine uptake ([1]; 60 min) was 0.21 ± 0.14 % ID/g. The Spleen uptake ([1]; 60 min) was 0.15 ± 0.03 % ID/g, the Stomach uptake ([1]; 60 min) was 0.25 ± 0.07 % ID/g and the Tumor uptake ([1]; 60 min) was 1.00 ± 0.17 % ID/g. It also gave a Tumor/blood ratio ([1]; 60 min) of 8.33, a Tumor/muscle ratio ([1]; 60 min) of 5.88 and a Blood uptake ([1]; 120 min) of 0.04 ± 0.02 % ID/g. The Bone uptake ([1]; 120 min) was 0.13 ± 0.04 % ID/g, the Heart uptake ([1]; 120 min) was 0.22 ± 0.05 % ID/g and the Kidney uptake ([1]; 120 min) was 1.23 ± 0.26 % ID/g. The Liver uptake ([1]; 120 min) was 0.28 ± 0.04 % ID/g, the Lung uptake ([1]; 120 min) was 0.17 ± 0.05 % ID/g and the Muscle uptake ([1]; 120 min) was 0.17 ± 0.05 % ID/g. The Small intestine uptake ([1]; 120 min) was 0.14 ± 0.06 % ID/g, the Spleen uptake ([1]; 120 min) was 0.17 ± 0.06 % ID/g and the Stomach uptake ([1]; 120 min) was 0.31 ± 0.06 % ID/g. It also gave a Tumor uptake ([1]; 120 min) of 0.68 ± 0.23 % ID/g, a Tumor/blood ratio ([1]; 120 min) of 17.00 and a Tumor/muscle ratio ([1]; 120 min) of 4.00. The Tumor/liver ratio [1] was 3.82 and the “Log P” value [2] was −4.01±0.17.
For `O=C(NC1C(O)O[C@H](CO)[C@@H](O)[C@@H]1O)C1C[S][Tc]23(=[O])[S]C[C@@H](C(=O)NC4C(O)O[C@H](CO)[C@@H](O)[C@@H]4O)[N]2CC[N]13` (some centres unmarked) [^99mTc-ECDG], the Blood uptake [4] is given as 1.61 ± 0.39 % ID/g, the Kidney uptake [4] is given as 6.73 ± 1.84 % ID/g and the Liver uptake [4] is given as 5.67 ± 2.08 % ID/g. The Muscle uptake [4] was 0.26 ± 0.07 % ID/g, the Tumor uptake [4] was 0.79 ± 0.16 % ID/g and the Tumor/blood ratio [4] was 0.49. For the same compound, the Tumor/liver ratio [4] was 0.14 and the Tumor/muscle ratio [4] was 3.04.
